These results are taken from patent US9744221B2, “Method and compositions for inhibiting or preventing adverse effects of oral antibiotics” (Synthetic Biologics, Inc., priority 2014, dated 2017).

Data set [1] in a line: in vivo. The following applies: Yorkshire, pig, po, 20 mg/kg.
Protocol: A total of ten, two-month old Yorkshire piglets, approximately 20 kg each, were used for this study. All 10 animals were treated with oral amoxicillin twice a day for a total of 7 days, and one cohort of 5 animals was also treated with oral SYN-004 four times a day for a total of 9 days. The SYN-004 treatment was started the day before amoxicillin treatment and continued for a day after amoxicillin was stopped (FIG. 1).
On Study Day 0, Group 2 (Pigs 6-10) received one size 0 capsule of SYN-004; containing 75 mg of SYN-004, orally, four times a day at 7 am, 12 pm, 5 pm, and 10 pm for a total of 9 days. Pigs were fed 3 times a day, after SYN-004 dosing at 7 am, after SYN-004 dosing at 12 pm, and after SYN-004 dosing at 5 pm. Beginning on Study Day 1, Groups 1 and 2 (Pigs 1-10) received oral amoxicillin (fruit flavored oral suspension, Sandoz, NDC: 0781-6157-46, Lot #EY9130; 20 mg/kg) twice a day at 7 am and at 5 pm, for a total of 7 days. Animals received the amoxicillin first, followed by the SYN-004, then feeding.
On Day 2, after 4 amoxicillin doses, animals were bled and serum collected. Blood was collected aseptically from the vena cava from anesthetized animals. Three blood draws were performed, at 1 hr, 3 hrs, and 8 hrs after amoxicillin administration. A Telazol cocktail was administered intramuscularly at a minimal dose (1 mL or less per 50 lbs) to achieve light anesthesia/sedations. At each timepoint, approximately 9 mL of blood was collected into a serum separator vacutainer tube.
Amoxicillin levels in the pig serum were quantified using a modification of a validated HPLC-based assay (Du et al., 2005). […] The assay was linear over a range of 1 to 30 ug/mL (R=0.999). Interday coefficients of variation for the low (1.5 ug/mL) and high (20 ug/mL) quality control samples were 3.9% and 4.9% respectively. Interday coefficients of variation were 3.8% and 2.8%, respectively. Peak height was used to integrate all the peaks. Sigma Plot was used to calculate drug concentrations and a −1 weighting factor was used. […]
For data set [2], the system named is intestinal microbiome. The data set is described as follows: Fecal microbiome whole genome shotgun sequencing in piglets given oral amoxicillin with or without SYN-004 (Example 1). Type of data set: in vivo, Yorkshire piglets. The following applies: Day -7 to Day 9, FIGS. 3 and 4.
Protocol: A study was performed using normal piglets to determine if SYN-004, when delivered orally with oral amoxicillin, functions to protect the microbiome from amoxicillin-induced dysbiosis.
A total of ten, two-month old Yorkshire piglets, approximately 20 kg each, were used for this study. All 10 animals were treated with oral amoxicillin twice a day for a total of 7 days, and one cohort of 5 animals was also treated with oral SYN-004 four times a day for a total of 9 days.
Two pre-treatment fecal samples were obtained, the first 4 days after the animals arrived at the animal treatment facility (Day −7), and the second 7 days after arrival (Day −4). An additional 3 fecal samples were collected at Day 4, Day 8, and Day 9. […]
DNA was isolated from the fecal samples and subjected to whole genome shotgun sequencing using an Illumina HiSeq system with a target of 20 million 100 bp single reads per sample. […]
The median similarity based on the relative bacterial strain abundance was calculated.
A statistical analysis was performed to determine the probability that the microbiomes before and after antibiotic treatment remained the same or were different. The microbiome sequence data were analyzed using a parameterization of the Dirichlet-Multinomial distribution (La Rosa et al., 2012) to perform a Likelihood Ratio Test.

In data set [1], `CC1(C)S[C@@H]2[C@H](NC(=O)[C@H](N)c3ccc(O)cc3)C(=O)N2[C@H]1C(=O)O` [amoxicillin, Amoxicillin] registered a concentration at 1 h of 8900 ± 800 ng/mL, a concentration at 3 h of 3900 ± 300 ng/mL and a concentration at 8 h of 1500 ± 300 ng/mL. The “diversity of the microbiome (median percent similarity of strain relative abundance)” value in data set [2] is on record as “continued to lose diversity throughout the duration of the study”.
